This note sets out measurements from PubChem BioAssay (NCI).

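Method: 48-hour compound exposure of cells in 96-well plates, five concentrations, linear interpolation of endpoints. GI50 marks 50% less growth. At the TGI there is no net growth.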 A value given as a limit tells only on which side of the number the result lay.

Some test systems named below: LOX IMVI melanoma; OVCAR-8 ovarian; SF-539 CNS; MCF7 breast; HOP-92 NSCLC; SW-620 colon; HCT-116 colon; HCC-2998 colon; BT-549 breast; SF-268 CNS.
What all share (test): NCI tumour cell line growth inhibition, 48 h

On to `CCOC(=O)n1cc(C2=C(c3ccc(OC)c(OC)c3)COC2=O)c2ccccc21`, for which the GI50 was 0.0623 µM in the test with LOX IMVI melanoma; 0.0954 µM in the test on OVCAR-8 ovarian; 0.031 µM in the test on SF-539 CNS; 0.0336 µM in the test on MCF7 breast; 0.161 µM in the test with HOP-92 NSCLC; 0.0417 µM in the test on SW-620 colon. Further, the GI50 was 0.0482 µM with HCT-116 colon, 0.0891 µM with HCC-2998 colon, 0.105 µM with BT-549 breast and 0.262 µM in the test with SF-268 CNS. Also, the TGI was over 100 µM in the test with LOX IMVI melanoma; over 100 µM with OVCAR-8 ovarian; 0.156 µM in the test with SF-539 CNS; over 100 µM in the test with MCF7 breast; over 52.8 µM with HOP-92 NSCLC; over 100 µM in the test on SW-620 colon. Also, the TGI in the test on HCT-116 colon is over 100 µM; in the test with HCC-2998 colon, 16.5 µM; with BT-549 breast, 22.6 µM; in the test on SF-268 CNS it was over 100 µM.

Consider `CC(=C(c1ccc(OCCN2CCCCC2)cc1)c1ccc(OCCN2CCCCC2)cc1)c1ccc(Cl)cc1`, for which the GI50 in the test with LOX IMVI melanoma is 0.406 µM; with OVCAR-8 ovarian, 0.484 µM; with SF-539 CNS it was 0.393 µM; in the test on MCF7 breast, 0.297 µM; in the test on HOP-92 NSCLC it was 0.343 µM; with SW-620 colon, 0.408 µM. In addition, the GI50 in the test on HCT-116 colon was 0.39 µM; in the test on HCC-2998 colon it was 0.396 µM; in the test with BT-549 breast, 0.414 µM; in the test with SF-268 CNS, 0.436 µM. For the same compound, the TGI with LOX IMVI melanoma is 0.754 µM; with OVCAR-8 ovarian, 1.04 µM; with SF-539 CNS, 0.738 µM; with MCF7 breast, 0.682 µM; with HOP-92 NSCLC, 0.711 µM; with SW-620 colon, 0.794 µM. Also, the TGI in the test on HCT-116 colon was determined as 0.743 µM; in the test with HCC-2998 colon, 0.755 µM; in the test with BT-549 breast, 0.787 µM; in the test with SF-268 CNS it was 0.873 µM.

In the case of `Cc1nnc2ccnn2c1C`, the GI50 in the test with LOX IMVI melanoma, in the test on OVCAR-8 ovarian, in the test with MCF7 breast, in the test with HOP-92 NSCLC, in the test on SW-620 colon and in the test with HCT-116 colon was over 100 µM throughout. Also, the GI50 was 18.1 µM in the test with HCC-2998 colon, over 100 µM in the test with BT-549 breast and over 100 µM with SF-268 CNS. Also, the TGI with LOX IMVI melanoma, with OVCAR-8 ovarian, with MCF7 breast, with HOP-92 NSCLC, in the test with SW-620 colon and in the test on HCT-116 colon was over 100 µM throughout. The values for the TGI in the test on HCC-2998 colon, with BT-549 breast and with SF-268 CNS were 33.1 µM, over 100 µM and over 100 µM, respectively.

On to `NCCNCCNCCN`, for which the GI50 in the test with LOX IMVI melanoma, in the test on OVCAR-8 ovarian, in the test on SF-539 CNS, with MCF7 breast, with HOP-92 NSCLC and in the test on SW-620 colon was over 100 µM in each case. Further, the GI50 in the test with HCT-116 colon, with HCC-2998 colon, in the test on BT-549 breast and in the test with SF-268 CNS was over 100 µM throughout. For the same compound, the TGI with LOX IMVI melanoma, in the test with OVCAR-8 ovarian, with SF-539 CNS, in the test with MCF7 breast, in the test on HOP-92 NSCLC and in the test with SW-620 colon was over 100 µM throughout. For the same compound, the TGI in the test with HCT-116 colon, with HCC-2998 colon, with BT-549 breast and with SF-268 CNS was over 100 µM in each case.

As to `CN(C)c1ccc(/C=N/NC(=S)Nc2ccccc2)cc1`, the TGI with LOX IMVI melanoma, with OVCAR-8 ovarian, in the test on SF-539 CNS, in the test on MCF7 breast, with HOP-92 NSCLC and in the test with SW-620 colon was over 100 µM throughout. Moreover, the TGI in the test on HCT-116 colon, with BT-549 breast and with SF-268 CNS was over 100 µM each time.

In the case of `CN1CCN(c2ccc(Nc3ncc(Cl)c(NC[C@@H]4CCCO4)n3)cc2)CC1`, the GI50 was 0.826 µM in the test with LOX IMVI melanoma; 4.02 µM with OVCAR-8 ovarian; 1.52 µM with SF-539 CNS; 0.683 µM in the test on MCF7 breast; 1.68 µM in the test with HOP-92 NSCLC; 0.538 µM with SW-620 colon. In addition, the GI50 in the test with HCC-2998 colon is 1.65 µM; in the test with BT-549 breast, 2.24 µM; in the test with SF-268 CNS, 1.55 µM. The TGI was 6.83 µM with LOX IMVI melanoma; over 100 µM with OVCAR-8 ovarian; 4.22 µM with SF-539 CNS; 26.9 µM in the test with MCF7 breast; 6.44 µM with HOP-92 NSCLC; over 100 µM in the test with SW-620 colon. Also, the TGI in the test with HCC-2998 colon was found to be 37.5 µM; in the test with BT-549 breast, 6.94 µM; with SF-268 CNS it was 12.9 µM.

Take `CC(=O)OC1(C)N=NC2(CCCCC2)O1` (stereo not drawn): the TGI with LOX IMVI melanoma, in the test on OVCAR-8 ovarian, in the test with SF-539 CNS, in the test on MCF7 breast, in the test with HOP-92 NSCLC and in the test on SW-620 colon was over 100 µM each time. For the same compound, the TGI in the test on HCT-116 colon, in the test on BT-549 breast and in the test with SF-268 CNS was over 100 µM each time.

With `CC(=O)OCc1ccc2c(c1)C(O)NC(=O)O2` (stereo not drawn), the TGI with LOX IMVI melanoma, in the test with OVCAR-8 ovarian, with SF-539 CNS, in the test with MCF7 breast, in the test on HOP-92 NSCLC and with SW-620 colon was over 100 µM throughout. The TGI with HCT-116 colon, in the test with BT-549 breast and in the test on SF-268 CNS was over 100 µM each time.
